{"source": "patent US20250025454A1", "about": "(priority 2021, published 2025)", "key": {"[1]": {"test": "in vitro", "details": "human, EC50, compound toxicity in the context of infection, total cell numbers per well; average±sem of 5 independent experiments"}, "[2]": {"system": "SARS-CoV-2", "details": "35 compounds tested"}, "[3]": {"system": "SARS-CoV-2", "test": "microbe, parasite or virus in culture", "details": "Severe acute respiratory syndrome coronavirus 2, HeLa-ACE2, 24 h"}, "[4]": {"system": "SARS-CoV-2/WA1", "format": "cell-based", "details": "Severe acute respiratory syndrome coronavirus 2, HeLa-ACE2"}}, "data": [{"smiles": "COc1ccc(C[C@H](N)C(=O)N[C@H]2[C@@H](O)[C@H](n3cnc4c(N(C)C)ncnc43)O[C@@H]2CO)cc1", "note": "[puromycin]", "values": [{"measurement": "EC50", "setting": "[1]", "value": "0.547 ± 0.027", "unit": "µM"}]}, {"smiles": "Cc1c2c(nn1C)CSCc1cc(n(C)n1)CSc1cc(c3ccccc3c1)OCCCc1c(C(=O)O)n(C)c3c-2c(Cl)ccc13", "note": "[AZD-5991]", "values": [{"measurement": "activity in the HeLa-ACE2 cell-based SARS-CoV-2 assay", "setting": "[2]", "value": "demonstrated activity"}]}, {"smiles": "CNCc1ccc(-c2cc(-c3nc(-c4ccc(S(=O)(=O)C(C)C)cc4)cnc3N)on2)cc1", "note": "[berzosertib, reference compound]", "values": [{"measurement": "EC50", "setting": "[3]", "value": 0.114, "unit": "µM"}, {"measurement": "IC50", "setting": "[4]", "value": 0.11, "unit": "µM"}, {"measurement": "activity in the HeLa-ACE2 cell-based SARS-CoV-2 assay", "setting": "[2]", "value": "demonstrated activity"}]}, {"smiles": "COc1cc(Cl)cc(C(C)Nc2cc(N3CCNCC3)ccc2S(C)(=O)=O)c1OC.Cl", "note": "(stereo not shown) [PRX-07034]", "values": [{"measurement": "activity in the HeLa-ACE2 cell-based SARS-CoV-2 assay", "setting": "[2]", "value": "demonstrated activity"}]}, {"smiles": "Nc1ncnc2c1nc(Cl)n2[C@@H]1O[C@@H]2COP(=O)(O)O[C@H]2[C@H]1O", "note": "[tocladesine]", "values": [{"measurement": "activity in the HeLa-ACE2 cell-based SARS-CoV-2 assay", "setting": "[2]", "value": "demonstrated activity"}]}]}
